Converted amounts (≈) assume the structure as drawn.
Details: for aqueous solubility: pH 6.8

Compound | MDR1-MDCK efflux ratio | intrinsic clearance, human liver microsomes [mL/min/kg] | intrinsic clearance, rat liver microsomes [mL/min/kg] | aqueous solubility [µg/mL] | fraction unbound, human plasma | fraction unbound, rat plasma
COc1ccc(CCCNc2nnc(C)o2)cc1 | – | ≤ 4.74 | 151 | 25.4 (≈ 103 µM) | – | –
Cc1[nH]c2ccc(Cl)cc2c1CC(=O)N1CCC(Cc2ncncc2C(N)=O)CC1 | 18.6 | 357 | 1170 | 46.5 (≈ 109 µM) | – | –
CC(=O)Nc1ccc(C(=O)N2CCCCC2c2nc(N)ncc2-c2cccc(Cl)c2)cc1 (stereo unspecified) | 98 | 53.3 | 651 | 57.5 (≈ 128 µM) | 0.0331 | 0.0384
Cc1cccc([C@H]2CN(C(=O)C3CCCC3)[C@@H]3CCN(CC4CC4)C[C@H]23)c1 | 1.86 | 555 | 2330 | – | – | –
COc1cc(Nc2ncc(F)c(Nc3ccc4c(n3)NC(=O)C(C)(C)O4)n2)cc(OC)c1OC | – | 133 | 122 | – | – | –
CN(C(=O)c1cc(N2CCNC2=O)ccc1F)C1CCC(N)CC1 (stereo unspecified) | 1.02 | ≤ 4.74 | – | – | 0.674 | –
NC(=O)c1ccc(Oc2ccc(C(=O)N3CCCCCC3)cc2)cc1 | 4.9 | 11.4 | 82.3 | 59.8 (≈ 177 µM) | – | –
Fc1ccccc1-c1noc(-c2ccc(NCCc3cnccn3)nc2)n1 | 0.142 | 10.2 | 749 | 5.51 (≈ 15.2 µM) | – | –
COC[C@@H](O)Cn1c(C)nc2ccccc21 | 1.43 | ≤ 4.74 | ≤ 10.7 | – | – | –
CC(C)(C=C(C#N)C(=O)N1CCC[C@@H](n2nc(-c3ccc(Oc4ccccc4)cc3F)c3c(N)ncnc32)C1)N1CCN(C2COC2)CC1 | 35.9 | 535 | 1140 | 35.8 (≈ 53.7 µM) | 0.0189 | 0.0133
O=C(Nc1cc[nH]n1)c1ccc2c(c1)[nH]c(=O)n2C1CCCC1 | – | 18.1 | 53.5 | – | – | –

The remaining lines, values ahead:

MDR1-MDCK efflux ratio | intrinsic clearance, human liver microsomes [mL/min/kg] | intrinsic clearance, rat liver microsomes [mL/min/kg] | aqueous solubility [µg/mL] | fraction unbound, human plasma | fraction unbound, rat plasma | Compound
0.442 | 22.6 | 796 | – | – | – | O=c1c2ccncc2ncn1[C@H]1CCN(Cc2ccccc2)C1
– | – | – | 0.16 (≈ 0.435 µM) | – | – | O=C1CCCc2nc(Nc3nc(-c4ccccc4)c4ccccc4n3)ncc21
0.583 | 19.2 | 893 | 54 (≈ 183 µM) | – | – | COCCS(=O)(=O)N1CCC2(Cc3ccccc3C2)C1
6.24 | 84.8 | 108 | 56.6 (≈ 127 µM) | – | – | Cn1c(=O)n(C)c2cc(CN3CCC(c4ccc(Cc5ccccc5F)cn4)CC3)ccc21
3.07 | – | – | 0.15 (≈ 0.347 µM) | – | – | CN(C)S(=O)(=O)N1CCC(c2ccc3c(NCc4ccccc4F)n[nH]c3n2)CC1
1.08 | 13.9 | 52.4 | – | – | – | O=C(/C=C\n1cnc(-c2cc(C(F)(F)F)cc(C(F)(F)F)c2)n1)NNc1ccccn1
0.655 | 400 | – | – | 0.00911 | – | Cc1ccc(OCC2(O)CCN(CC3(O)CCN(c4ccccc4C)CC3)CC2)cc1
– | – | – | 1.4 (≈ 4.25 µM) | – | – | CCN(c1ccccc1)S(=O)(=O)c1ccc(C(F)(F)F)cc1
0.59 | 10.5 | 65.8 | 20.5 (≈ 87 µM) | – | – | Cc1ccncc1-c1ccc(-c2ccn[nH]2)cc1
0.372 | – | – | 0.61 (≈ 1.87 µM) | – | – | Cc1ccc(C(N)=O)c(OCc2c(Cl)ccc3cccnc23)c1
0.427 | ≤ 4.74 | 20.8 | 35.2 (≈ 128 µM) | – | – | O=C(NCc1ccc(CO)c(F)c1)Nc1ccccc1
